# Values of other authors, collected in US11654108B1, “Sennoside medicated chews” (MEDICATED CHEWS, LLC, priority 2022, dated 2023).
# [1] = after oral administration of sennosides
substance,measurement,setting,value
sennosides,metabolites excreted in urine,[1],3-6%
same,sennosides excreted in feces as polymers (polyquinones),[1],90%
same,"unchanged sennosides, sennidins, rheinanthrone and rhein excreted in feces",[1],2-6%
same,absorption in the upper gut / splitting by human digestive enzymes,"upper gut, human digestive enzymes",neither absorbed in the upper gut nor split by human digestive enzymes
